According to ChEMBL document CHEMBL1649108, “Discovery of AMG 369, a Thiazolo[5,4-b]pyridine Agonist of S1P1 and S1P5” (ACS Med Chem Lett, 2011):
Active and inactive are the calls of the source. The calls are words filed in the database; no cut-off is given here.

Experiments:
[1] = biological target: T1, Sphingosine 1-phosphate receptor 3 (Homo sapiens, UniProt Q99500); experiment: Agonist activity at human S1P3R expressed in CHO cells by Ca(2+) mobilization assay; format: functional, cell-based
T1 sequence (Q99500 whole entry): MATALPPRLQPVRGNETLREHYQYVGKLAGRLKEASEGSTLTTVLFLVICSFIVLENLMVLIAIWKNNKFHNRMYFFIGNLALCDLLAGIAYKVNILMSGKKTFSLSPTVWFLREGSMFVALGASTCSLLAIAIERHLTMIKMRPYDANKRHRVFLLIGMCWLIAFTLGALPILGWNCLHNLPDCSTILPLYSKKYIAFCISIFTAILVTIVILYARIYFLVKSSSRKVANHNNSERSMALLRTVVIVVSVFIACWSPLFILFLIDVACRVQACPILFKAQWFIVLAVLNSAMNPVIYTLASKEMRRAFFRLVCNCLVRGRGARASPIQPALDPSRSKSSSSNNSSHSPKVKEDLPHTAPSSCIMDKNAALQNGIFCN

[2] = biological target: T2, Sphingosine 1-phosphate receptor 1 (Homo sapiens, UniProt P21453); experiment: Induction of human GFP-tagged chimeric S1P1R internalization in human U2Os cells by fluorescence microscopy; format: cell-based
T2 sequence (P21453 whole entry): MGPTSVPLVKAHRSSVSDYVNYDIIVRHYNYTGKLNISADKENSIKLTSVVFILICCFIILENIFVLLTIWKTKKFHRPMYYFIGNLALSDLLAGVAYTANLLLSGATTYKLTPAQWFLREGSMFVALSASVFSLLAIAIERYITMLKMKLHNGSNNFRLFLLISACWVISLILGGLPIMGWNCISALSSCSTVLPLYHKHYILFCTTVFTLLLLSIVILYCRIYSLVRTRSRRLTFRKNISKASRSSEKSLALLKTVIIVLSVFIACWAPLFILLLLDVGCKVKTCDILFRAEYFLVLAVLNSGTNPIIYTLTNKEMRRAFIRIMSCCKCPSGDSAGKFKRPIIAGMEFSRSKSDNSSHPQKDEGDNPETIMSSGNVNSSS

[3] = biological target: T1, Sphingosine 1-phosphate receptor 3; experiment: Agonist activity at human S1P3R expressed in CHO cells by Ca(2+) mobilization assay relative to S1P; format: functional, cell-based; design: concentration or dose not given beside the values
[4] = biological target: T2, Sphingosine 1-phosphate receptor 1; experiment: Induction of human GFP-tagged chimeric S1P1R internalization in human U2Os cells by fluorescence microscopy relative to 1-(4-(6-benzylbenzofuran-2-yl)-3-fluorobenzyl)azetidine-3-carboxylic acid; format: cell-based
[5] = biological target: T1, Sphingosine 1-phosphate receptor 3; experiment: Agonist activity at human S1P3R expressed in CHO cells at 2.5 uM by Ca(2+) mobilization assay relative to S1P; format: functional, cell-based
[6] = Clearance in cynomolgus monkey at 1 mg/kg, iv or 1 mg/kg, po; format: ADME, organism-based, Macaca fascicularis; settings: in vivo
[7] = tested on: Rattus norvegicus; experiment: Induction of delay in onset of disease in experimental autoimmune encephalitis Lewis rat model of multiple sclerosis at 20 ug/day, po administered at the time of immunization with guinea pig myelin basic protein
[8] = biological target: T3, Sphingosine 1-phosphate receptor 5 (Homo sapiens, UniProt Q9H228); experiment: Agonist activity at human S1P5R expressed in CHO cells by Ca(2+) mobilization assay; format: functional, cell-based
T3 sequence (Q9H228 whole entry): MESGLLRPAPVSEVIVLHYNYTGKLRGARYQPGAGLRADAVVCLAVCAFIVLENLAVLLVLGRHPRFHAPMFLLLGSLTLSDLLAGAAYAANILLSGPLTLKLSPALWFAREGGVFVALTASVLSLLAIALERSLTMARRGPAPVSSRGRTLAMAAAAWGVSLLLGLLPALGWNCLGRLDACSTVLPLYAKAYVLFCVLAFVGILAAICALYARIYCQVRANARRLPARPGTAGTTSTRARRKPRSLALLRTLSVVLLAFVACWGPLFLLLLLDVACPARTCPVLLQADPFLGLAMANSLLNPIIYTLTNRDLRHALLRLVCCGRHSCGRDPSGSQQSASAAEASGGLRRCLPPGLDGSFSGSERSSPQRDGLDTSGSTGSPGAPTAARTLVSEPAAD

[9] = Volume of distribution at steady state in cynomolgus monkey at 1 mg/kg, iv or 1 mg/kg, po; format: ADME, organism-based, Macaca fascicularis; settings: in vivo, read-out: Vdss
[10] = Mean residence time in Sprague-Dawley rat at 1 mg/kg, iv or 2 mg/kg, po; format: ADME, organism-based; settings: in vivo
[11] = tested on: Rattus norvegicus; experiment: Lymphopenic activity in Lewis rat assessed as reduction in blood lymphocyte counts at 0.03 mg/kg, po administered as single dose measured 24 hrs post dose; format: functional
[12] = Oral bioavailability in cynomolgus monkey 1 mg/kg; format: ADME, organism-based, Macaca fascicularis; settings: in vivo
[13] = Clearance in Sprague-Dawley rat at 1 mg/kg, iv or 2 mg/kg, po; format: ADME, organism-based; settings: in vivo
[14] = tested on: Rattus norvegicus; experiment: Toxicity in telemetered Sprague-Dawley rat assessed as effect on heart rate at 10 mg/kg, po; format: organism-based; design: dose 10 mg/kg, route oral; settings: in vivo
[15] = biological target: Voltage-gated inwardly rectifying potassium channel KCNH2 (Homo sapiens, UniProt Q12809); experiment: Inhibition of human ERG at 2.3 uM by patch-clamp method
Voltage-gated inwardly rectifying potassium channel KCNH2, sequence (Q12809 whole entry): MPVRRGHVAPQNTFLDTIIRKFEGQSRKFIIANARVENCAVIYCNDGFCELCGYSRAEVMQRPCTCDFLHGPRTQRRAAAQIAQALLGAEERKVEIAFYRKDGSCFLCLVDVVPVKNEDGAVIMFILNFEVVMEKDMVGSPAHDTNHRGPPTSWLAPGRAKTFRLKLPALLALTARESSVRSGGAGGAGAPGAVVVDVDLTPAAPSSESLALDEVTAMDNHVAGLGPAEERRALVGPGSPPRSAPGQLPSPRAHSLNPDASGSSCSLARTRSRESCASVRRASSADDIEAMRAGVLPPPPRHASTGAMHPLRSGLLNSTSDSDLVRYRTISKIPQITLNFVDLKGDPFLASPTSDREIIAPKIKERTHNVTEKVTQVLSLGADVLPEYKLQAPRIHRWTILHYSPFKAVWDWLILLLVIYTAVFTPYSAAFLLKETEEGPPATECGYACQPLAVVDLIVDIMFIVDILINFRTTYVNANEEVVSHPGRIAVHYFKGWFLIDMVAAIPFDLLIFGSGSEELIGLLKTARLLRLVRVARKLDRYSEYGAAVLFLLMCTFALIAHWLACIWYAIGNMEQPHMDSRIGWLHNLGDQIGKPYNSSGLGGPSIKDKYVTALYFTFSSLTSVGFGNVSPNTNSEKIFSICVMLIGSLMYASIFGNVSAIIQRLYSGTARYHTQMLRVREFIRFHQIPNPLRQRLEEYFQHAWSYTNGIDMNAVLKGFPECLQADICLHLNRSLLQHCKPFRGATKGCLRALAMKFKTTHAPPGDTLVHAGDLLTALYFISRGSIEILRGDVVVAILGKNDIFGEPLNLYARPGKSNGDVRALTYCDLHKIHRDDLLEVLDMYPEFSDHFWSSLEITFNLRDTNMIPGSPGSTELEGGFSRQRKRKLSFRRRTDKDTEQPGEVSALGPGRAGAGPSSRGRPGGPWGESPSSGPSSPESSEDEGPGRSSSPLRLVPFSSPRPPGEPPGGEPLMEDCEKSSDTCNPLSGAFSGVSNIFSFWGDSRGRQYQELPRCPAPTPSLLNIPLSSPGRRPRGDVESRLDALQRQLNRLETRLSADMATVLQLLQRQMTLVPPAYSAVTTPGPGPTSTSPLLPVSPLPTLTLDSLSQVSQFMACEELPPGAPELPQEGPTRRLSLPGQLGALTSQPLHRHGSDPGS

[16] = Half life in cynomolgus monkey at 1 mg/kg, iv or 1 mg/kg, po; format: ADME, organism-based, Macaca fascicularis; settings: in vivo
[17] = Mutagenic activity in Salmonella Typhimurium by Ames assay; format: toxicity; settings: salmonella enterica subsp. enterica serovar typhimurium
[18] = Volume of distribution at steady state in Sprague-Dawley rat at 1 mg/kg, iv or 2 mg/kg, po; format: ADME, organism-based; settings: in vivo, read-out: Vdss
[19] = Mean residence time in cynomolgus monkey at 1 mg/kg, iv or 1 mg/kg, po; format: ADME, organism-based, Macaca fascicularis; settings: in vivo
[20] = Half life in Sprague-Dawley rat at 1 mg/kg, iv or 2 mg/kg, po; format: ADME, organism-based; settings: in vivo
[21] = tested on: Rattus norvegicus; experiment: Reduction of disease score in experimental autoimmune encephalitis Lewis rat model of multiple sclerosis at 20 ug/day, po administered at the time of immunization with guinea pig myelin basic protein
[22] = Oral bioavailability in Beagle dog 1 mg/kg; format: ADME, organism-based, Canis lupus familiaris; settings: in vivo
[23] = tested on: Rattus norvegicus; experiment: Lymphopenic activity in orally dosed Lewis rat assessed as reduction in blood lymphocyte counts measured 24 hrs post dose; format: functional, organism-based
[24] = biological target: T4, Sphingosine 1-phosphate receptor 4 (Homo sapiens) (UniProt O95977); experiment: Agonist activity at human S1P4R expressed in CHO cells by Ca(2+) mobilization assay; format: functional, cell-based
T4 sequence (whole entry): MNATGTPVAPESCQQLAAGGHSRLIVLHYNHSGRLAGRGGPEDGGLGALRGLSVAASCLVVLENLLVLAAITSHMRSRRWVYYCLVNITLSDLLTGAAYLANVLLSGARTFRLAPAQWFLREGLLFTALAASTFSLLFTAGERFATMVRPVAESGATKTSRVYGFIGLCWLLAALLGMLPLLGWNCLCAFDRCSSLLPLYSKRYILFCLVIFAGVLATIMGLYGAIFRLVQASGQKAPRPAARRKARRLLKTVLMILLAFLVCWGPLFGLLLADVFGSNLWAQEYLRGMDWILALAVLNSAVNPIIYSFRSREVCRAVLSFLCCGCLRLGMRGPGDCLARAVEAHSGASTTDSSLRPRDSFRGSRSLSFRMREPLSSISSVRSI

[25] = tested on: Rattus norvegicus; experiment: Reduction of disease score in experimental autoimmune encephalitis Lewis rat model of multiple sclerosis at 2 ug/day, po administered at the time of immunization with guinea pig myelin basic protein
[26] = Half life in Beagle dog at 1 mg/kg, iv or 1 mg/kg, po; format: ADME, organism-based, Canis lupus familiaris; settings: in vivo
[27] = Volume of distribution at steady state in Beagle dog at 1 mg/kg, iv or 1 mg/kg, po; format: ADME, organism-based, Canis lupus familiaris; settings: in vivo, read-out: Vdss
[28] = Clearance in Beagle dog at 1 mg/kg, iv or 1 mg/kg, po; format: ADME, organism-based, Canis lupus familiaris; settings: in vivo
[29] = biological target: Sphingosine 1-phosphate receptor 2 (Homo sapiens) (UniProt O95136); experiment: Agonist activity at human S1P2R expressed in CHO cells by Ca(2+) mobilization assay; format: functional, cell-based
Sphingosine 1-phosphate receptor 2 (Homo sapiens), sequence (O95136 whole entry): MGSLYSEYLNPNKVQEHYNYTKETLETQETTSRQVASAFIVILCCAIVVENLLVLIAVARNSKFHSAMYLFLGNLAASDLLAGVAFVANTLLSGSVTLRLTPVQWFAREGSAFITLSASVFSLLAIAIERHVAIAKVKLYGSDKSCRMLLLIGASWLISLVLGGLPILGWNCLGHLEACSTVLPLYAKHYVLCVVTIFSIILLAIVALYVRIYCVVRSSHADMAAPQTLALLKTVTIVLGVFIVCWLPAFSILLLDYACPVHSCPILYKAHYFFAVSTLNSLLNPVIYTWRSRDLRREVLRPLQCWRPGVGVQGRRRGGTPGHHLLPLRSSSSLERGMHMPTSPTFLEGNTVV

[30] = Oral bioavailability in Sprague-Dawley rat 2 mg/kg; format: ADME, organism-based; settings: in vivo
[31] = tested on: Rattus norvegicus; experiment: Toxicity in telemetered Sprague-Dawley rat assessed as change in mean arterial pressure at 10 mg/kg, po; format: organism-based, Artery; design: dose 10 mg/kg, route oral; settings: in vivo
[32] = biological target: T3, Sphingosine 1-phosphate receptor 5; experiment: Agonist activity at human S1P5R expressed in CHO cells by Ca(2+) mobilization assay relative to control; format: functional, cell-based
[33] = Inhibition of Cytochrome P450; format: ADME
[34] = Mean residence time in Beagle dog at 1 mg/kg, iv or 1 mg/kg, po; format: ADME, organism-based, Canis lupus familiaris; settings: in vivo
[35] = tested on: Rattus norvegicus; experiment: Lymphopenic activity in Lewis rat assessed as reduction in blood lymphocyte counts at 0.1 mg/kg, po administered as single dose measured 24 hrs post dose; format: functional
[36] = tested on: Rattus norvegicus; experiment: Lymphopenic activity in Lewis rat assessed as reduction in blood lymphocyte counts at 1 mg/kg, po administered as single dose measured 24 hrs post dose; format: functional, organism-based; design: dose 1 mg/kg

O=C(O)C1CN(Cc2ccc(-c3nc4ccc(Cc5ccccc5)cc4s3)c(F)c2)C1 gave an EC50 [1] of 3470 nM, an EC50 [2] of 221 nM and an Activity [3] of 50%.
With C[C@H](c1ccccc1)c1ccc2nc(-c3ccc(CN4CC(C(=O)O)C4)cc3F)sc2n1 the EC50 [1] was 996 nM, the EC50 [2] was 38 nM and the Activity [3] was 45%. It also gave an Efficacy [4] of 87%.
In the case of O=C(O)C1CN(Cc2ccc(-c3nc4ccc(C5(c6ccccc6)CCC5)nc4s3)c(F)c2)C1, the EC50 [1] is reported as 1310 nM, the EC50 [2] is reported as 119 nM and the Activity [3] is reported as 68%. For the same compound, the Efficacy [4] was 124%.
For O=C(O)C1CN(Cc2ccc(-c3nc4cc(Cc5ccccc5)ncc4s3)c(F)c2)C1, the EC50 [1] was greater than 25000 nM, the EC50 [2] was 429 nM and the Efficacy [4] was 115%.
In the case of O=C(O)C1CN(Cc2ccc(-c3nc4ncc(Cc5ccccc5)cc4s3)c(F)c2)C1, the EC50 [1] is reported as greater than 25000 nM, the EC50 [2] is reported as 1600 nM and the Efficacy [4] is reported as 75%.
With O=C(O)C1CN(Cc2ccc(-c3nc4ccc(C5(c6ccccc6)CCCC5)nc4s3)c(F)c2)C1 the EC50 [2] was 26 nM, the Efficacy [5] was 12% and the Efficacy [4] was 76%.
O=C(O)C1CN(Cc2ccc(-c3nc4cnc(Cc5ccccc5)cc4s3)c(F)c2)C1 gave an EC50 [1] of 5460 nM, an EC50 [2] of 3980 nM and an Activity [3] of 64%. It also gave an Efficacy [4] of 77%.
With C[C@@H](c1ccccc1)c1ccc2nc(-c3ccc(CN4CC(C(=O)O)C4)cc3F)sc2n1 the EC50 [1] was 877 nM, the EC50 [2] was 35 nM and the Activity [3] was 44%. It also gave an Efficacy [4] of 99%.
Compound O=C(O)C1CN(Cc2ccc(-c3nc4ccc(C5(c6ccccc6)CC5)cc4s3)c(F)c2)C1 has an EC50 [1] of 4670 nM, an EC50 [2] of 38 nM and an Activity [3] of 56%. For the same compound, the Efficacy [4] was 93%.
For O=C(O)C1CN(Cc2ccc(-c3nc4ccc(Cc5ccccc5)nc4s3)c(F)c2)C1, the EC50 [1] was 478 nM, the EC50 [2] was 199 nM and the Activity [3] was 94%. The Efficacy [4] was 92%.
In the case of O=C(O)C1CN(Cc2ccc(-c3nc4ccc(C5(c6ccccc6)CC5)nc4s3)c(F)c2)C1, the clearance [6] is reported as 8.33 mL/min/kg, the Activity [7] is reported as “Active” and the EC50 [8] is reported as 29 nM. The Vd [9] was 2.3 L/kg, the MRT [10] was 10 h and the inhibition in vivo at 0.03 mg/kg [11] was 45%. The bioavailability [12] was 34%, the clearance [13] was 3 mL/min/kg and the Activity [14] was “Non-toxic”. For the same compound, the “inhibition (INH)” value [15] was “Not Active”, the half-life [16] was 24 h and the Activity [17] was “Non-toxic”. The Vd [18] was 1.8 L/kg, the MRT [19] was 4.7 h and the Activity [3] was 26%. For the same compound, the half-life [20] was 5.9 h, the Activity [21] was “Active” and the bioavailability [22] was 41%. For the same compound, the inhibition [23] was “Dose-dependent effect”, the Activity [24] was “inactive” and the Activity [25] was “inactive”. For the same compound, the half-life [26] was 38 h, the Vd [27] was 1.2 L/kg and the clearance [28] was 1.18 mL/min/kg. For the same compound, the Activity [29] was “inactive”, the bioavailability [30] was 64% and the Activity [31] was “Non-toxic”. The Efficacy [32] was 50%, the “inhibition (INH)” value [33] was “Not Active” and the Efficacy [4] was 98%. For the same compound, the MRT [34] was 17 h and the inhibition in vivo at 0.1 mg/kg [35] was 65%.
O=C(O)C1CN(Cc2ccc(-c3nc4cc(Cc5ccccc5)cnc4s3)c(F)c2)C1 showed an EC50 [1] of 2890 nM, an EC50 [2] of 138 nM and an Activity [3] of 36%. The Efficacy [4] was 125%.
O=C(O)C1CN(Cc2ccc(-c3nc4nc(Cc5ccccc5)ccc4s3)c(F)c2)C1 showed an EC50 [1] of 10100 nM, an EC50 [2] of 144 nM and an Activity [3] of 63%. For the same compound, the Efficacy [4] was 106%.
O=C(O)C1CN(Cc2ccc(-c3nc4ccc(C5(c6ccccc6)CCCCC5)nc4s3)c(F)c2)C1 gave an EC50 [1] of 836 nM, an EC50 [2] of 33 nM and an Activity [3] of 41%. For the same compound, the Efficacy [4] was 108%.
Work on CC(C)(c1ccccc1)c1ccc2nc(-c3ccc(CN4CC(C(=O)O)C4)cc3F)sc2n1 yielded an EC50 [1] of 2510 nM, an EC50 [2] of 33 nM and an Activity [3] of 64%. For the same compound, the Efficacy [4] was 103%.
For O=C(O)C1CN(Cc2ccc(-c3nc4cc(Cc5ccccc5)ccc4s3)c(F)c2)C1, the inhibition [36] was “Active”, the Activity [3] was 24% and the Efficacy [4] was 102%.
